Reference: patent US6333348A, “Use of docetaxel for treating cancers” (Aventis Pharma S.A., priority 2000, dated 2001)

What was measured:
breast cancer = experiment: Docetaxel alone, several in-house proprietary studies; format: in vivo, human
Description: Docetaxel alone, in several in-house proprietary studies, gave overall response rates of 40 to 43% (in second line therapy at a dose of 100 mg/m^2), 48% (in first line therapy at a dose of 75 mg/m^2) and 61% (in first line therapy at a dose of 100 mg/m^2).

[1] = treatments based on taxoid derivatives, including docetaxel; cited from earlier work

SMILES: CC(=O)O[C@@]12CO[C@@H]1C[C@H](O)[C@@]1(C)C(=O)[C@H](O)C3=C(C)[C@@H](OC(=O)[C@H](O)[C@@H](NC(=O)OC(C)(C)C)c4ccccc4)C[C@@](O)([C@@H](OC(=O)c4ccccc4)[C@H]21)C3(C)C [docetaxel]
- overall response rate (breast cancer; first line therapy, 75 mg/m^2): 48%
- overall response rate (breast cancer; first line therapy, 100 mg/m^2): 61%
- overall response rate (breast cancer; second line therapy, 100 mg/m^2): 40 to 43%
- toxicities [1]: myelosuppression, neutropenia, hypersensitivity, peripheral neuropathy, and fluid retention
